# Results as given in PubChem BioAssay (NCI).
#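 The compound was tested at five concentrations on cells cultured in 96-well plates, with a 48-hour exposure period. GI50 = concentration required for 50% inhibition of growth. TGI denotes the concentration required for complete inhibition of growth.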
# Legend:
# Assay in all cases: NCI-60 cell line screen, 48 h
# [1] = tested on: 786-0 renal
# [2] = tested on: A498 renal
# [3] = tested on: A549 NSCLC
# [4] = tested on: ACHN renal
# [5] = tested on: BT-549 breast
# [6] = tested on: CAKI-1 renal
# [7] = tested on: CCRF-CEM leukemia
# [8] = tested on: COLO 205 colon
# [9] = tested on: DU-145 prostate
# [10] = tested on: EKVX NSCLC
# [11] = tested on: HCC-2998 colon
# [12] = tested on: HCT-116 colon
# [13] = tested on: HCT-15 colon
# [14] = tested on: HL-60(TB) leukemia
# [15] = tested on: HOP-62 NSCLC
# [16] = tested on: HOP-92 NSCLC
# [17] = tested on: HS 578T breast
# [18] = tested on: HT29 colon
# [19] = tested on: IGROV1 ovarian
# [20] = tested on: K-562 leukemia
# [21] = tested on: KM12 colon
# [22] = tested on: LOX IMVI melanoma
# [23] = tested on: M14 melanoma
# [24] = tested on: MALME-3M melanoma
# [25] = tested on: MCF7 breast
# [26] = tested on: MDA-MB-231 breast
# [27] = tested on: MDA-MB-435
# [28] = tested on: MOLT-4 leukemia
# [29] = tested on: NCI-H226 lung
# [30] = tested on: NCI-H23 lung
# [31] = tested on: NCI-H460 lung
# [32] = tested on: NCI-H522 lung
# [33] = tested on: NCI/ADR-RES ovarian
# [34] = tested on: OVCAR-3 ovarian
# [35] = tested on: OVCAR-4 ovarian
# [36] = tested on: OVCAR-5 ovarian
# [37] = tested on: OVCAR-8 ovarian
# [38] = tested on: PC-3 prostate
# [39] = tested on: RPMI-8226 leukemia
# [40] = tested on: RXF 393 renal
# [41] = tested on: SF-268 CNS
# [42] = tested on: SF-295 CNS
# [43] = tested on: SF-539 CNS
# [44] = tested on: SK-MEL-2 melanoma
# [45] = tested on: SK-MEL-28 melanoma
# [46] = tested on: SK-MEL-5 melanoma
# [47] = tested on: SK-OV-3 ovarian
# [48] = tested on: SN12C renal
# [49] = tested on: SNB-19 CNS
# [50] = tested on: SNB-75 CNS
# [51] = tested on: SR leukemia
# [52] = tested on: SW-620 colon
# [53] = tested on: T-47D breast
# [54] = tested on: TK-10 renal
# [55] = tested on: U251 CNS
# [56] = tested on: UACC-257 melanoma
# [57] = tested on: UACC-62 melanoma
# [58] = tested on: UO-31 renal
compound,measurement,setting,value
COc1ccc2c(c1)C(=O)c1c-2n(CCCCl)c(=O)c2cc(OC)c(OC)cc12,GI50,[1],5.41 µM
same,TGI,[1],31.7 µM
same,GI50,[2],> 52.5 µM
same,TGI,[2],> 100 µM
same,GI50,[3],12 µM
same,TGI,[3],> 100 µM
same,GI50,[4],3.28 µM
same,TGI,[4],14 µM
same,GI50,[5],> 100 µM
same,TGI,[5],> 100 µM
same,GI50,[6],6.47 µM
same,TGI,[6],> 24.4 µM
same,GI50,[7],2020 nM
same,GI50,[8],> 100 µM
same,TGI,[8],> 100 µM
same,GI50,[9],4.01 µM
same,TGI,[9],> 48.1 µM
same,GI50,[10],> 100 µM
same,TGI,[10],> 100 µM
same,GI50,[11],17.4 µM
same,TGI,[11],> 95.9 µM
same,GI50,[12],8.68 µM
same,TGI,[12],> 100 µM
same,GI50,[13],> 96.4 µM
same,TGI,[13],> 100 µM
same,GI50,[14],4.11 µM
same,TGI,[14],18 µM
same,GI50,[15],5.13 µM
same,TGI,[15],> 51.3 µM
same,GI50,[16],> 32.6 µM
same,TGI,[16],> 86.4 µM
same,GI50,[17],> 77.2 µM
same,TGI,[17],> 100 µM
same,GI50,[18],> 52.1 µM
same,TGI,[18],> 100 µM
same,GI50,[19],17.1 µM
same,TGI,[19],> 100 µM
same,GI50,[20],32.4 µM
same,TGI,[20],> 100 µM
same,GI50,[21],> 54.2 µM
same,TGI,[21],> 100 µM
same,GI50,[22],6.87 µM
same,TGI,[22],> 61.9 µM
same,GI50,[23],6.24 µM
same,TGI,[23],> 100 µM
same,GI50,[24],18.6 µM
same,TGI,[24],> 96.1 µM
same,GI50,[25],6.27 µM
same,TGI,[25],> 100 µM
same,GI50,[26],> 100 µM
same,TGI,[26],> 100 µM
same,GI50,[27],42.5 µM
same,TGI,[27],> 100 µM
same,GI50,[28],2550 nM
same,TGI,[28],6.29 µM
same,GI50,[29],> 79.1 µM
same,TGI,[29],> 100 µM
same,GI50,[30],15.5 µM
same,TGI,[30],> 100 µM
same,GI50,[31],2400 nM
same,TGI,[31],> 100 µM
same,GI50,[32],9.12 µM
same,TGI,[32],> 95 µM
same,GI50,[33],11.6 µM
same,TGI,[33],> 100 µM
same,GI50,[34],82.3 µM
same,TGI,[34],> 100 µM
same,GI50,[35],> 91.7 µM
same,TGI,[35],> 100 µM
same,GI50,[36],> 100 µM
same,TGI,[36],> 100 µM
same,GI50,[37],53.4 µM
same,TGI,[37],> 100 µM
same,GI50,[38],41.5 µM
same,TGI,[38],> 100 µM
same,GI50,[39],2140 nM
same,TGI,[39],14.5 µM
same,TGI,[40],> 21.1 µM
same,GI50,[41],8.63 µM
same,TGI,[41],> 100 µM
same,GI50,[42],3.99 µM
same,TGI,[42],> 100 µM
same,GI50,[43],6.29 µM
same,TGI,[43],> 57.3 µM
same,GI50,[44],> 100 µM
same,TGI,[44],> 100 µM
same,GI50,[45],> 79.4 µM
same,TGI,[45],> 100 µM
same,GI50,[46],9.2 µM
same,TGI,[46],30.1 µM
same,GI50,[47],28.6 µM
same,TGI,[47],> 100 µM
same,GI50,[48],6.67 µM
same,TGI,[48],> 100 µM
same,GI50,[49],13.2 µM
same,TGI,[49],> 100 µM
same,GI50,[50],> 24.7 µM
same,TGI,[50],> 75.5 µM
same,GI50,[51],1390 nM
same,TGI,[51],6.62 µM
same,GI50,[52],19.6 µM
same,TGI,[52],> 100 µM
same,GI50,[53],13.5 µM
same,TGI,[53],> 100 µM
same,GI50,[54],> 70.2 µM
same,TGI,[54],> 100 µM
same,GI50,[55],5.95 µM
same,TGI,[55],> 100 µM
same,GI50,[56],45.3 µM
same,TGI,[56],> 100 µM
same,GI50,[57],4.6 µM
same,TGI,[57],> 100 µM
same,GI50,[58],8.4 µM
same,TGI,[58],> 100 µM
